Experimental findings from patent US20260216103A1, “USE OF LONG-ACTING ß2AR AGONIST IN PREPARATION OF DRUGS FOR TREATING CANCERS” (HONG KONG SXMETEROL PHARMACEUTICAL CO., LIMITED, priority 2023, published 2026) are described below.

Experiment [1] has as its system cancer stem cells of 17 cancers. In words: tumor sphere formation assays of cancer cells, summary over 17 cancers. Format: cell-based. The settings on record: summary of Examples 1-9; agonist used alone. An excerpt: (§1) As a gold standard for detecting the self-renewal capability of cancer stem cells in vitro, a tumor sphere formation assay may detect individual cancer stem cell that continuously self-renew in a conditioned medium and form tumor spheres consisting of multiple cells. This in vitro experiment is often used to test the responsiveness of clinical patients to anticancer drugs, and guide in vivo medication of the clinical patients.
Cancer stem cells have self-renewal capability, which determines the initiation and progression of cancers. As a gold standard for detecting the self-renewal capability of cancer stem cells in vitro, a tumor sphere formation assay may detect individual cancer stem cells that continuously self-renew in a conditioned medium and form tumor spheres consisting of multiple cells.

The subject of experiment [2] is pancreatic cancer cells CFPAC-1, PANC-1. Briefly: tumor sphere formation assay of pancreatic cancer cells. The format is cell-based. As to conditions: 1 μM, 3 μM, or 10 μM, 7 d; FIG. 24.
Excerpt: as §1

For experiment [3], the system named is ovarian cancer cells SKOV3. In words: tumor sphere formation assay of ovarian cancer cells. The format is cell-based. As to conditions: 1 μM, 3 μM, or 10 μM, 7 d; FIG. 21.
Excerpt: as §1

The test system of the next experiment is osteosarcoma cells U2OS. In words: tumor sphere formation assay of osteosarcoma cells. Format: cell-based. The settings on record: 1 μM, 3 μM, or 10 μM, 7 d; FIG. 26; P<0.01.
Excerpt: as §1

Experiment [4] deals with lung cancer cells LLC, H1299, H460, H446. Briefly: tumor sphere formation assay of lung cancer cells. The format is cell-based. As to conditions: 1 μM, 3 μM, or 10 μM, 7 d; FIG. 13.
Excerpt: as §1

The test system of experiment [5] is KYSE-150 esophageal cancer cells. Briefly: subcutaneous tumorigenesis experiment with SX-pretreated esophageal cancer cells. As to conditions: cells treated with 10 μM SX for 3 d, 1×10^6/mouse; FIG. 8; P<0.0001 vs control. Format: in vivo, mice. Here is the method: (§2) Experimental method and steps: Cancer cells were treated with salmeterol xinafoate (SX) in vitro for 3-7 d, and a subcutaneous or orthotopic tumorigenesis experiment was conducted on mice.
KYSE-150 esophageal cancer cells were treated with 10 μM salmeterol xinafoate (SX) for 3 d, and cells (1×10^6/mouse) were subcutaneously injected on both sides of the back of mice in a control group and an SX treated group (3 mice/group) to conduct a tumorigenesis experiment.
Experimental results in FIG. 8 show cancer growth curves.

Another experiment deals with RT4 bladder cancer cells. Briefly: subcutaneous tumorigenesis experiment with SX-pretreated bladder cancer cells. Format: in vivo, mice. As to conditions: cells treated with 10 μM SX for 3 d, 1×10^6/mouse; FIG. 9; P<0.0001 vs control. The procedure:
as §2
RT4 bladder cancer cells were treated with 10 μM salmeterol xinafoate (SX) for 3 d, and cells (1×10^6/mouse) were subcutaneously injected on both sides of the back of mice in a control group and an SX treated group (5 mice/group) to conduct a tumorigenesis experiment.
Experimental results in FIG. 9 show cancer growth curves.

In experiment [6] the test system is MDA-MB-231 breast cancer cells. In words: orthotopic tumorigenesis experiment with SX-pretreated breast cancer cells. Format: in vivo, mice. The settings on record: cells treated with 10 μM SX for 7 d. The procedure:
as §2
MDA-MB-231 breast cancer cells were treated with 10 μM salmeterol xinafoate (SX) for 7 d, and cells (1×10^4/mouse) were injected into the orthotopic mammary fat pads on both sides of the body of mice in a control group and an SX treated group (5 mice/group) to conduct a tumorigenesis experiment. 8 orthotopic cancers formed at 10 injection sites in the orthotopic mammary fat pads of 5 mice in the control group, and only 6 orthotopic cancers formed at 10 injection sites in the orthotopic mammary fat pads of 5 mice in the SX treated group.
Experimental results in FIG. 4 show cancer growth curves and representative cancer photos.

Experiment [7] has as its system head and neck cancer cells CAL-27. Briefly: tumor sphere formation assay of head and neck cancer cells. Format: cell-based. As to conditions: 1 μM, 3 μM, or 10 μM, 7 d; FIG. 14.
Excerpt: as §1

In a further experiment the test system is a variety of cancers. In words: orthotopic or subcutaneous tumorigenesis experiments in mice, summary. The settings on record: summary of in vivo tumorigenesis experiments; drug concentration of 10 μM. The procedure: as §2
The next experiment relates to brain cancer cells SF126. In words: tumor sphere formation assay of brain cancer cells. Format: cell-based. As to conditions: 1 μM, 3 μM, or 10 μM, 7 d; FIG. 25.
Excerpt: as §1

Another experiment deals with bladder cancer cells RT4. Briefly: tumor sphere formation assay of bladder cancer cells. The format is cell-based. The settings on record: 1 μM, 3 μM, or 10 μM, 7 d; FIG. 16.
Excerpt: as §1

For experiment [8], the system named is colorectal cancer cells CT-26, SW620, HCT-15, DLD-1. Briefly: tumor sphere formation assay of colorectal cancer cells. Format: cell-based. As to conditions: 1 μM, 3 μM, or 10 μM, 7 d; FIG. 12.
Excerpt: as §1

The subject of experiment [9] is melanoma cells B16F10, A375, A2058. Briefly: tumor sphere formation assay of melanoma cells. The format is cell-based. As to conditions: 1 μM, 3 μM, or 10 μM, 7 d; FIG. 17.
Excerpt: as §1

The next experiment has as its system B16F10 melanoma cells. Briefly: tumorigenesis experiment with SX-pretreated melanoma cells. Format: in vivo, mice. The settings on record: cells treated with 10 μM SX for 3 d. The procedure: as §2
B16F10 melanoma cells were treated with 10 μM salmeterol xinafoate (SX) for 3 d, and cells (1×10^6/mouse) were subcutaneously injected on both sides of the back of mice in a control group and an SX treated group (4 mice/group) to conduct a tumorigenesis experiment. Cancers formed subcutaneously at all 8 injection sites of 4 mice in the control group, and cancers formed subcutaneously also at all 8 injection sites of 4 mice in the SX treated group.
Experimental results in FIG. 10 show cancer growth curves and representative cancer photos.

For experiment [10], the system named is prostate cancer cells PC-3, DU145, RM-1. In words: tumor sphere formation assay of prostate cancer cells. The format is cell-based. As to conditions: 1 μM, 3 μM, or 10 μM, 7 d; FIG. 19.
Excerpt: as §1

The subject of a further experiment is LLC lung cancer cells. In words: subcutaneous tumorigenesis experiment with SX-pretreated lung cancer cells (LLC). As to conditions: cells treated with 10 μM SX for 7 d. The format is in vivo, mice. The procedure: as §2
In FIG. 6B, LLC lung cancer cells were treated with 10 μM salmeterol xinafoate (SX) for 7 d, and cells (1×10^5/mouse) were subcutaneously injected on both sides of the back of mice in a control group (8 mice) and an SX treated group (5 mice) to conduct a tumorigenesis experiment.
Experimental results in FIG. 6 show cancer growth curves and representative cancer photos.

For experiment [11], the system named is gastric cancer cells SNU-1. Briefly: tumor sphere formation assay of gastric cancer cells. Format: cell-based. As to conditions: 10 μM, 7 d; FIG. 23; P<0.001.
Excerpt: as §1
According to culture conditions in Table 13, gastric cancer cells SNU-1 were subjected to a tumor sphere formation assay, and treated with salmeterol xinafoate (SX) at a concentration of 10 μM.

Consider `OCc1cc(C(O)CNCCCCCCOCCCCc2ccccc2)ccc1O` (stereo not drawn) [salmeterol xinafoate], for which, in experiment [1], the “self-renewal capability of cancer stem cells” value is “can significantly inhibit the self-renewal capability of cancer stem cells of 17 cancers”. For the same molecule, the “number of tumor spheres (self-renewal capability of cancer stem cells)” value is “inhibited the self-renewal capability of the pancreatic cancer stem cells in a concentration dependent manner” in [2]; “inhibited the self-renewal capability of the ovarian cancer stem cells in a concentration dependent manner” in experiment [3]; “inhibited the self-renewal capability of the osteosarcoma cancer stem cells” with osteosarcoma cells U2OS; “inhibited the self-renewal capability of the lung cancer stem cells in a concentration dependent manner” in experiment [4]; “inhibited the self-renewal capability of the head and neck cancer stem cells” in experiment [7]; “inhibited the self-renewal capability of the brain cancer stem cells in a concentration dependent manner” with brain cancer cells SF126. The “number of tumor spheres (self-renewal capability of cancer stem cells)” value with bladder cancer cells RT4 is reported as “inhibited the self-renewal capability of the bladder cancer stem cells in a concentration dependent manner”; in experiment [8] it was “inhibited the self-renewal capability of the colorectal cancer stem cells in a concentration dependent manner”; in experiment [9] it was “inhibited the self-renewal capability of the melanoma stem cells in a concentration dependent manner”; in [10], “inhibited the self-renewal capability of the prostate cancer stem cells in a concentration dependent manner”; in experiment [11] it was “inhibited the self-renewal capability of the gastric cancer stem cells”. The “cancer growth curves (initiation and progression)” value in experiment [5] is “inhibits the initiation and progression of subcutaneous esophageal cancer”; in the experiment on RT4 bladder cancer cells, “inhibits the initiation and progression of subcutaneous bladder cancer”; in [6] (FIG. 4, P<0.0001 vs control) it was “inhibits the initiation and progression of orthotopic breast cancer”; in the experiment on B16F10 melanoma cells (FIG. 10, P<0.0001 vs control) it was “inhibits the initiation and progression of orthotopic melanoma”; with LLC lung cancer cells (FIG. 6B, P<0.0001 vs control) it was “inhibits the initiation and progression of subcutaneous lung cancer”. The “orthotopic cancers formed at injection sites” value in experiment [6] (1×10^4/mouse into orthotopic mammary fat pads, 10 injection sites of 5 mice, control group 8) is reported as 6. For the same molecule, the “cancer initiation and cancer growth” value in the experiment with a variety of cancers is recorded as “not only inhibiting cancer initiation but also significantly inhibiting cancer growth”. For the same molecule, the “cancers formed subcutaneously at injection sites” value in the experiment with B16F10 melanoma cells (1×10^6/mouse, 8 injection sites of 4 mice, control group all 8 sites) is 8; in the experiment with LLC lung cancer cells (1×10^5/mouse, 10 injection sites of 5 mice, control group all 16 sites), “no cancers formed”.
